Earlier results, collected in patent US20090162442A1, “MULTI-PHASIC, NANO-STRUCTURED COMPOSITIONS CONTAINING A COMBINATION OF A FIBRATE AND A STATIN” (priority 2007, published 2009).

[1] = American Family Physician, 2002, Vol. 65, No. 6, page 1173

| Structure (SMILES) | absorbed (rate of absorption) [1] | bioavailable [1] | bioavailability under fed conditions (food interaction) |
| --- | --- | --- | --- |
| CC(C)n1c(/C=C/C(O)CC(O)CC(=O)O)c(-c2ccc(F)cc2)c2ccccc21 (centres unmarked) [fluvastatin] | 98% | approximately 24% | decrease |
| CC[C@H](C)C(=O)O[C@H]1C[C@H](O)C=C2C=C[C@H](C)[C@H](CC[C@@H](O)C[C@@H](O)CC(=O)O)[C@H]21 [pravastatin] |  |  | decrease |
| CC[C@H](C)C(=O)O[C@H]1C[C@@H](C)C=C2C=C[C@H](C)[C@H](CC[C@@H]3C[C@@H](O)CC(=O)O3)[C@H]21 [lovastatin] | about 30% |  |  |
